Laboratory results taken from patent US11779573B2, “Crystalline forms of compounds for preventing or treating sensory hair cell death” (University of Washington, priority 2017, dated 2023).

Columns and labels:
Format in all cases: physicochemical
[1] = Solubility in water of scaled-up salts of Compound B (salt screen)
Description: These slurry experiments were also performed at gram scale with 25 mg/mL Compound B in 20 mL ethyl acetate with 1 equivalent acid.

[2] = Dynamic vapor sorption (DVS), hygroscopicity and XRPD before/after; conditions: for hygroscopicity / crystallinity / polymorphic form (XRPD) after DVS: mesylate; for crystallinity / polymorphic form (XRPD) after DVS: XRPD before and after DVS cycles of relative humidity
Description: DVS studies were performed using a Surface Measurement Systems Ltd. DVS-1 No Video. The sample, typically 20-30 mg, was loaded into a balance pan and equilibrated at 0% relative humidity (RH). After the material was dried, the RH was increased at 10% per step for 1 hour per increment, ending at 95% RH. After completion of the sorption cycle, the sample was dried using the same method, and the cycle was repeated. The software used for data collection was DVSWin v3.01 No Video. Data analysis was performed using DVS Standard Analysis Suite v6.3.0 (Standard).

[3] = Solubility of Compound 1 in water, shake-flask method; conditions: thermodynamic from solid, visually determined at 20° C., water added stepwise to 10 mg
Description: Water was added stepwise to 10 mg of Compound 1, with 15 minutes in between additions, until complete dissolution was obtained.

With `CN1[C@H]2CC[C@@H]1c1c(sc(NC(=O)Nc3ccc(Cl)cc3)c1C(N)=O)C2.CS(=O)(=O)O` [Compound 1, (4R,7S)-2-(3-(4-chlorophenyl)ureido)-9-methyl-5,6,7,8-tetrahydro-4H-4,7-epiminocyclohepta[b]thiophene-3-carboxamide mesylate] the solubility [1] was 97 to 970 mg/mL, the “total mass uptake in the first sorption cycle” value ([2]; DVS, 0% to 95% RH, first sorption cycle) was 1.8% and the “total mass uptake in the second cycle” value ([2]; DVS, 0% to 95% RH, second cycle) was 1.6%. The hygroscopicity ([2]; DVS, listed as mesylate salt) was “slightly hygroscopic at high humidity levels”, the hygroscopicity ([2]; DVS) was “slightly hygroscopic” and the “crystallinity / polymorphic form (XRPD) after DVS” value ([2]; listed as mesylate salt) was “remained unchanged”. The “crystallinity / polymorphic form (XRPD) after DVS” value [2] was “unchanged” and the solubility at 15 min [3] was over 97 mg/mL.
